# From patent US20260199212A1, “USE OF L-CARNOSINE AGAINST SOLAR ELASTOSIS” (SYMRISE AG, priority 2022, published 2026)
# Legend:
# fibrillin-1 = experiment: Fibrillin-1 immunostaining in the papillary dermis of skin explants, semi-quantified by image analysis; format: cell-based, human; details: after infrared irradiation
# Procedure: (§1) Human skin explants of an average diameter of 12 mm (+1 mm) were prepared on an abdo-plasty coming from a person with a phototype II according to Fitz-patrick skin colour classification. The explants were kept in survival in BEM culture medium (BIO-EC's Explants Medium) at 37° C. in a humid, 5%-CO2 atmosphere.
# (§2) Compositions A and B were applied at the rate of 2 μL per 1 cm^2 skin sample (~2 mg/cm^2) and spread using a small spatula on day 0, day 1, day 2, day 3 and day 6 (30 min before infrared irradiation exposure). […] The culture medium was half renewed (1 ml per well) on day 2, day 3 and day 6.
# (§3) On day 6, the culture media of all the batches was replaced by HBSS (Hank's Balanced Saline Solution; 1 ml per explant). The batches IR, IR-C2, and IR-T were irradiated using a infrared lamp (Dr FISCHER 1000W, 235V 2500K; 760-3000 nm), for 1:24 h (720 J/cm^2; 140 mW/cm^2). The non-irradiated batches were kept in HBSS in the dark. […]
# Nuclei have been post-stained with propidium iodide. The staining was assessed by microscopical observation and semi-quantified by image analysis. […]
# Fibrillin-1 immunostaining was assessed by microscopical observation of skin sections with semi-quantification by image analysis using the software cellSens (Olympus).
# (§4) Analysed zone: ROI including the papillary dermis.
# (§5) Number of analysed images per batch: 9. […]
# tropoelastin = experiment: Tropoelastin immunostaining in the papillary dermis of skin explants, semi-quantified by image analysis; format: cell-based, human; details: when applying L-Carnosine
# Procedure: as §1, §2, §3
# Nuclei have been post stained with propidium iodide. The staining was assessed by microscopical observation and semi-quantified by image analysis. […]
# Tropoelastin immunostaining was assessed by microscopical observation of skin sections with semi-quantification by image analysis using the software cellSens (Olympus).
# as §4, §5
smiles,measurement,setting,value
NCCC(=O)N[C@@H](Cc1cnc[nH]1)C(=O)O [L-Carnosine],amount of fibrillin-1 in the dermis,fibrillin-1,strongly increase
same,amounts of elastin after infrared irradiation versus without infrared irradiation,tropoelastin,not significantly different
